According to PubChem BioAssay (NCI):
Several values for one entry are separate records, joined by “and”; a condition that tells them apart may be missing. Equal values may be shown once.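 Grown in 96-well plates, cells were treated for 48 hours with each compound at five concentrations. Insufficient inhibition: endpoint recorded as highest concentration tested. GI50: concentration for 50% inhibition of growth. TGI denotes the concentration required for complete inhibition of growth.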

What was measured:
Assay in all cases: inhibition of tumour cell growth, NCI panel, 48 h
A498 renal = system: A498 renal
HOP-92 NSCLC = system: HOP-92 NSCLC
LOX IMVI melanoma = system: LOX IMVI melanoma
MDA-MB-231 breast = system: MDA-MB-231 breast
NCI-H226 lung = system: NCI-H226 lung
NCI-H23 lung = system: NCI-H23 lung
OVCAR-5 ovarian = system: OVCAR-5 ovarian
OVCAR-8 ovarian = system: OVCAR-8 ovarian
PC-3 prostate = system: PC-3 prostate
SF-268 CNS = system: SF-268 CNS
SK-OV-3 ovarian = system: SK-OV-3 ovarian
SR leukemia = system: SR leukemia
U251 CNS = system: U251 CNS
UACC-257 melanoma = system: UACC-257 melanoma

Compound	TGI (A498 renal) [µM]	TGI (HOP-92 NSCLC) [µM]	TGI (LOX IMVI melanoma) [µM]	TGI (MDA-MB-231 breast) [µM]	TGI (NCI-H226 lung) [µM]	TGI (NCI-H23 lung) [µM]	TGI (OVCAR-5 ovarian) [µM]	TGI (OVCAR-8 ovarian) [µM]	TGI (PC-3 prostate) [µM]	TGI (SF-268 CNS) [µM]	TGI (SK-OV-3 ovarian) [µM]	TGI (SR leukemia)	TGI (U251 CNS) [µM]	TGI (UACC-257 melanoma) [µM]	GI50 (HOP-92 NSCLC) [µM]	GI50 (MDA-MB-231 breast) [µM]	GI50 (PC-3 prostate) [µM]	GI50 (SR leukemia) [µM]	GI50 (U251 CNS) [µM]	GI50 (UACC-257 melanoma) [µM]
O=C1NC(N/N=C/c2ccccc2)=N/C1=C\c1cccs1	28	32.4	23.4	38.7	25.8	40.7	70.8	29.3	26.7	30.3	39.1	> 100 µM	32.8	> 100						
COc1ccc(C(=O)Cn2c(C(C)=O)nc3ccccc32)cc1	> 100	> 100	> 46.4	> 100	> 100	> 100	> 100	> 44.5	> 100	> 100	> 100	> 100 µM	31.8	> 100						
CCN(CC)c1nc(N(C)C)c2ccc(OC)cc2n1		> 100	42.3	75.8	55.2	> 100	> 100	> 100	54.8	> 100	52.5	31.4 µM	71.8	28.1						
CC(=O)O[C@H]1[C@H](OC(C)=O)[C@@H](CN=[N+]=[N-])OCO[C@@H]1CN=[N+]=[N-]	> 100	> 100	> 100	> 100	> 100	> 100	> 100	> 100	> 100	> 100	> 100	> 100 µM	> 100	> 100						
O=c1c[n+](-c2ccccc2)[nH]o1	> 100	> 100	> 100	> 100		> 100	> 100		> 100	> 100	> 100	> 100 µM	> 100	> 100						
COc1ccccc1-c1nc2ccccc2c(=O)[nH]1	> 100			> 100	> 100	> 100	> 100	> 100	> 100	> 100	> 100	> 100 µM	> 100	> 100						
BrCCC[P+](c1ccccc1)(c1ccccc1)c1ccccc1	> 100	44.4	16.8	86	> 100	> 64.7	> 100	> 100	> 100	> 100	> 100	> 100 µM	> 100	48.3						
OCCCCn1cc(Cn2ncc3c(SCc4ccccc4)ncnc32)nn1	> 100	> 100	> 100	> 100	> 100	> 100	> 100	> 100	> 100	> 100	> 100	85.4 µM	> 100	> 100						
CCOC(=O)/C=C(\C(=O)OCC)n1cnc2c(N)ncnc21	17.7	7.12	11.9	21.8	13	31.8	14	18.1	26.1	37.6	32	4.25 µM	20.8	27.8						
O=C(Nc1nncs1)NS(=O)(=O)n1cnc2ccccc21	> 100	> 100		> 100	> 100	> 100	> 100	> 100	> 100	> 100	> 100	> 100 µM	> 100	> 100						
COc1cc(/C=C/c2sc3ccccc3[n+]2C)ccc1N(C)C	> 100	34.9	31.9	23.2	50.6	27.7	40.5		32.3	33.6	54.8	7.71 µM and 36.3 µM	21.8	22.9	13	11.2	12.8	6.85	8.06	8.32
CCOC(=O)NC(NNc1ccc([N+](=O)[O-])cc1[N+](=O)[O-])(C(F)(F)F)C(F)(F)F	73	47.3	> 100	> 100	> 100	> 100	> 100	> 100	> 100	> 100	69.4	60.6 µM	64.6	> 100						
CC(=O)N1CC[N+](C)(CCCCN2c3ccccc3Sc3cc(N=[N+]=[N-])ccc32)CC1	> 100		> 100	> 100	> 100	> 100	> 100	> 100	> 100	> 100	> 100	> 100 µM	> 100	> 100						
CN(C)CCCNC(=O)c1cc(NC(=O)c2cc(NC(=O)[C@H]3C[C@@H]3C(=O)Nc3cc(C(=O)Nc4cc(C(=O)NCCCN(C)C)n(C)c4)n(C)c3)cn2C)cn1C		7.96	> 100	> 100	> 100	> 100	> 100	> 100	> 100	> 100		> 100 µM	> 100	> 100						
c1nc(SSc2ncnc3nc[nH]c23)c2[nH]cnc2n1	> 100	> 100	20.4	> 56.5	> 100	9.54	> 65.2	> 100	> 100	> 29.2	> 100	> 41.6 µM	> 100	> 100						
CC(=O)O[C@H]1[C@@H](OC2CCCC2(c2ccccc2)c2ccccc2)O[N+]([O-])=C[C@@]12COCc1cc3c(cc12)OCO3 (stereo not given in full)	7.67	30.7	> 26.6	> 43.2	15.8	52.1	> 51.5	> 100	19.3	14.4	> 91.6	> 23.6 µM	22.6	> 100						
COCC(=O)OC1CCn2c1nc1c2C(=O)C(C)=C(NC(C)=O)C1=N (stereo not given)	32.9	9.11	6.04	8.82	33.2	23.8	25.3	7.19	9.01	10.3	37.5	7.52 µM	17.9	8.23						

Compound	TGI (A498 renal) [µM]	TGI (HOP-92 NSCLC) [µM]	TGI (LOX IMVI melanoma) [µM]	TGI (MDA-MB-231 breast) [µM]	TGI (NCI-H226 lung) [µM]	TGI (NCI-H23 lung) [µM]	TGI (OVCAR-5 ovarian) [µM]	TGI (OVCAR-8 ovarian) [µM]	TGI (PC-3 prostate) [µM]	TGI (SF-268 CNS) [µM]	TGI (SK-OV-3 ovarian) [µM]	TGI (SR leukemia)	TGI (U251 CNS) [µM]	TGI (UACC-257 melanoma) [µM]	GI50 (HOP-92 NSCLC) [µM]	GI50 (MDA-MB-231 breast) [µM]	GI50 (PC-3 prostate) [µM]	GI50 (SR leukemia) [µM]	GI50 (U251 CNS) [µM]	GI50 (UACC-257 melanoma) [µM]
Cc1cc(N(CCC#N)CCC#N)ccc1/C(N=Nc1ccccc1)=N\NC(=O)c1ccccc1	93.7			> 100	> 100	> 100	> 100	90.7	> 100	> 100	> 100	71.6 µM	> 100	> 100						
CCN(CC)CCNc1ccc2ncn3c4c(OC)cccc4c(=O)c1c23	33.4	18.4		25.6	20.8	24.5		55.6	17.6	17.6	24	20.8 µM	19.3	69.2						
Cc1nn(-c2ccccc2)c2c1C(c1cc3ccccc3nc1Cl)NC(=S)N2 (stereo not given)	> 100	96.6	56.6	> 100	> 100	> 100	> 100	82.2	> 100	> 100	> 100	> 100 µM	83	> 100						
O=c1oc2cc(O)ccc2cc1-c1nc2ccccc2s1	51.1	> 100	90.2	53.6		61.2	> 100	> 100	52.5		78.1	> 100 µM	55.7	58.2						
COc1ccc(C(=O)/C=C/c2ccc(OCC(=O)O)cc2)cc1	> 100	> 100	> 100	> 100		> 100	> 100	> 100	> 100	> 100		> 100 µM	79.9							
O=C1c2ccccc2C(=O)c2c1oc(=O)c1ccccc21	> 25	11.9	9.9	13.8	21.2	10.6	14.4	15.1	19.2	19.7	> 25	21.3 µM	12.2	6.75						
Fc1ccc(NCn2nc(COc3ccccc3Cl)n(/N=C/c3ccc(-c4ccc(Cl)cc4Cl)o3)c2=S)cc1Cl	41.6		> 100	> 100	> 100	> 100	> 100	> 100	> 100	> 100	> 100	36.8 µM	75.2	> 100						
CC1(C)CCCCCC(C)(CCCCCCCCCCCO)C1=O (stereo not given)	33	31.2	28.7	29.9	32.3	30.3	31.2	31.2	30	30.2	31.7	14.3 µM	31.1	27						
COc1ccc(N=Nc2c(C)c(C#N)c(=S)n(C3OC(COC(C)=O)C(OC(C)=O)C(OC(C)=O)C3OC(C)=O)c2-c2ccccc2)cc1 (stereo not given)	7.09	7.83	17.9	22.3		34.6	30.8		21.3			> 100 µM	22.6	75.8						
COP(=O)(OC)C(O)/C=C(\Cl)c1ccc(Cl)cc1 (stereo not given)		45.3	52.1	> 100	> 100	50.8	> 100	54.6	> 100	> 100	> 100	59.1 µM	> 100	84.6						
CC(=O)OCC1OC(n2c3c(cc(C#N)c2=S)CCCCCC3)C(OC(C)=O)C(OC(C)=O)C1OC(C)=O (stereo not given)	> 100	> 100	49.8	> 100	> 100	> 100	> 100	> 100	> 100	> 100		> 100 µM	> 100	> 100						
O=c1c2ccccc2c2c1c1c3ccccc3c(=O)c1c1c3ccccc3c(=O)c21	> 100		> 100	> 100	> 100	> 100	> 100	> 100	> 100	> 100	> 100	> 100 µM	> 100	> 100						
COc1ccc(/C=C(\C(=O)OCC(C)C)c2ccc(OC)c(OC)c2)cc1OC	> 100	> 100	> 100	61.5	> 100	> 100	> 100	> 100	> 100	> 100		> 100 µM	> 100	> 100						
O=c1[nH]c(=O)n(C2OC(CO)C(O)C2O)cc1OCCc1ccccc1 (stereo not given)	> 100	> 100	> 100	> 100	> 100	> 100	> 100	> 100	> 100	> 100	> 100	> 100 µM		> 100						
O=c1oc2cccnc2n1CCN1CCN(c2ccc(Oc3ccccc3)cc2)CC1	> 100	> 100	> 100	> 100		> 100	> 100	> 100	> 100	> 100	> 100	> 100 µM	> 100	> 100						
Cn1c(=O)c2nc3nnc(C#N)c(N)n3c2n(C)c1=O	> 100	> 100		> 100	> 100		> 100	> 100	> 100	> 100	> 100	> 100 µM	> 100							
